Source: article PMC9704104, “Towards safer anti-inflammatory therapy: synthesis of new thymol–pyrazole hybrids as dual COX-2/5-LOX inhibitors” (Journal of Enzyme Inhibition and Medicinal Chemistry, 2022)
Values joined by “and” are separate entries in the source; they are usually repeats but may differ in a detail not shown here. Identical values can stand only once. “Also recorded” adds a separate entry of the source.

How the values were obtained:
COX-1 = biological target: T1, COX-1 (Ovis aries, UniProt P05979); test: In vitro COX-1 inhibitory assay (Cayman colorimetric COX (ovine) inhibitor screening assay kit); format: biochemical; details: mean of three replicates ± SD
T1 construct: purchased Cayman chemicals 560131
T1 sequence (P05979 25-600): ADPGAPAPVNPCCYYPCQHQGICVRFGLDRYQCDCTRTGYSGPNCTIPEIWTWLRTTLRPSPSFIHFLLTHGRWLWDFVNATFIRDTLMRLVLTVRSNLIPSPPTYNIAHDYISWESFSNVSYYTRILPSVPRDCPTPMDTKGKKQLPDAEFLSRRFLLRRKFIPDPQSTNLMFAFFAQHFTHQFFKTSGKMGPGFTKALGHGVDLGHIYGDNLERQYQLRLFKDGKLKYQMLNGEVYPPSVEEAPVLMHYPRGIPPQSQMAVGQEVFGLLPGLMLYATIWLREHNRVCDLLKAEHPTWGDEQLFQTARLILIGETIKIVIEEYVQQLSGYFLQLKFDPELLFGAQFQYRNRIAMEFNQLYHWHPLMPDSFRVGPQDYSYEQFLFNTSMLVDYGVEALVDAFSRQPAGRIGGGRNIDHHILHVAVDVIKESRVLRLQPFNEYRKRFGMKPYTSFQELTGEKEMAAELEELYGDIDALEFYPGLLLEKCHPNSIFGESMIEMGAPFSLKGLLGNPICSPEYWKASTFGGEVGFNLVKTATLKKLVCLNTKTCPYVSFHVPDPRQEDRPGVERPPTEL
Method: (Page: S20, Supplementary file).
Anti-inflammatory activity
In vitro COX-1 and COX-2 inhibitory assay […]
supplied by Cayman chemicals, Ann Arbor, MI, USA according to reported method 1. The colorimetric COX inhibitor screening assay utilizes the peroxidase component of cyclooxygenase. The peroxidase activity was assayed calorimetrically by monitoring the appearance of oxidized N,N,N',N'-tetramethyl-1,4-phenylenediamine (TMPD) at 590nm. The appearance of reagent was carried out following the instructions […]
The half- maximal inhibitor concentrations (IC50µM) were determined and the selectivity index (SI) values were calculated as IC50 (COX-1)/IC50 (COX-2).
1) Background wells- 160 µL of assay buffer and 10 µL of heme were added to background wells.
2) The 100% Initial activity wells- 150 µL of assay buffer, 10 µL of heme and 10 µL of enzyme (COX-1 or COX-2) were added.
3) Inhibitor well- 150 µL of assay buffer, 10 µL of heme and 10 µL of enzyme were added.
4) 10 µL of inhibitor (3 concentrations) in DMSO was added to the inhibitor wells to yield a final […]
5) 10 µL of solvent (DMSO) was added to the 100% Initial activity wells and background wells.
7) 20 µL of colorimetric substrate solution (TMPD) was added to all wells.
8) 20 µL of arachidonic acid was added to all wells to yield a final concentration of 100 µM.
10) The absorbance was measured at 590 nm using a plate reader.
The calculations were carried out in the following manner:
1) The average absorbance of all samples was determined.
2) The absorbance of background wells was subtracted from absorbance of the 100% Initial activity […]
3) Percent inhibition = (100% Initial activity – Inhibitor wells/ 100% Initial activity)∗ 100 […]
Place the 96-well plate on a shaker for at least five minutes. […]

[1] = tested on: formalin-induced rat paw oedema; test: Formalin-induced paw oedema test (acute inflammation model); format: in vivo; details: for % inhibition of paw oedema compared with reference drugs (in words) / inhibition in vivo at 5 mg/kg: 4 h; for % inhibition of paw oedema compared with reference drugs (in words) / Volume of oedema (ml) 4h / inhibition in vivo at 5 mg/kg / Volume of oedema (ml) 0: 5 mg/kg orally; for % inhibition of paw oedema compared with reference drugs (in words): comparison with celecoxib or diclofenac sodium; for Volume of oedema (ml) 4h: 4 h after formalin; for Volume of oedema (ml) 4h / inhibition in vivo at 5 mg/kg / % Relative potency (4h) celecoxib / % Relative potency (4h) diclofenac / Volume of oedema (ml) 0: individual rats 1-3; for inhibition in vivo at 5 mg/kg: Rattus norvegicus, po, read-out: % Inhibition of oedema volume; for % Relative potency (4h) celecoxib, Mean ± SD / % Relative potency (4h) celecoxib: relative to % inhibition of celecoxib at 4 h; for % Relative potency (4h) celecoxib, Mean ± SD / % Relative potency (4h) diclofenac, Mean ± SD: group mean ± SD; for % Relative potency (4h) diclofenac, Mean ± SD / % Relative potency (4h) diclofenac: relative to % inhibition of diclofenac at 4 h
Method: Animals Adult female albino rats weighing 150-250 g were used (Experimental Animal Centre in Alexandria University). All animals accessed to food and water ad libitum and were housed in 12 h dark/light cycle in a controlled condition at 23-250C. They were allowed to acclimatize for 1 week prior to experimentation. Procedures involving animals and their care were conducted in conformity with the Guide for the Care and Use of Laboratory Animals published by US National Institute of Health4 (NIH publication No. 83-23, revised) and following the ethical guidelines of Alexandria University on laboratory animals. In all tests, adequate considerations were adopted to reduce pain or discomfort of animals (Approved by AlexU-IACUC) 3. […]
Formalin-induced paw edema test (acute inflammation model):
A solution of freshly prepared formalin 5% was used as a phlogistic agent. A mark was made on the lateral malleolus of the rats’ paws delineating the injection sites. The initial volume of paw was measured by means of digital calibrated Vernier caliper .
After 45 minutes, 40 μl formalin were injected subcutaneously into the sub plantar tissue of the right hind paw of all groups under light ether anesthesia . An equal volume of saline was injected into the left hind paw and served as internal control for the degree of inflammation in the right hind paw. 5, 6 The volume of paw was measured in different treatment groups, 4 h following the formalin injection and the amount of increase in paw volume (edema volume) was calculated by subtracting the volumes before and 4 h after the injection of formalin. Edema was expressed as an increase in the volume of paw, and the percentage of edema inhibition (or percent protection against inflammation) for each rat and each group was calculated according to the following equation: […]
Where Vt is the mean volume of edema at specific time interval (4 h) and Vo is the mean volume of edema […]
Relative potency of the tested compounds was expressed as % inhibition of edema for the tested compounds

gastric mucosa = test: In vivo gastric ulcerogenic activity (gross examination of gastric mucosa); details: fasted rats, 60 mg/kg orally, six hours after treatment, 60 mg/kg
Method: Compounds were evaluated for acute gastric ulcerogenic effect in adult female Wistar rats. Gross examination was performed for any evidence of hyperaemia, haemorrhage, definite haemorrhagic erosion, or ulcer according to reported procedures[49]^,[51]
Compounds were evaluated for acute gastric ulcerogenic effect in adult female Wistar rats. Rats (150–250 g)
were divided into groups of six rats each and test compounds, references or DMSO as control were
administered orally at a dose of 60 mg/kg body weight (three times the previously used dose). Six hours after
the treatment they were sacrificed under deep ether anesthesia and their stomachs were removed and opened
through greater curvature, washed under running water and fixed in saline solution. Gross examination was
performed for any evidence of hyperemia, hemorrhage, definite hemorrhagic erosion or ulcer 6, 7 (Approved
The degree of ulcerogenicity was determined by viewing the gastric epithelial ulceration using a 5x
magnifying lens and rated by ulcer score.
Ulcer score was used to grade the incidence and severity of the lesions such as:
1) Shedding of epithelium—10
2) Petechial and frank hemorrhages—20
4) More than two ulcers—40

5-LOX = test: In vitro 5-LOX inhibitory assay (Abnova 5-LOX inhibitor screening assay kit); format: biochemical
Source text: The newly synthesised compounds were screened for their ability to inhibit 5-LOX enzymes. […] (Page: S21, Supplementary file). […]
In vitro LOX inhibitory assay
Inhibitor Screening Assay Kit detects and measures the hydroperoxides produced in the lipoxygenation reaction using a purified LOX. The detection reaction is equally sensitive to hydroperoxides at various positions within the fatty acid and will work with fatty acids of any carbon length. It is thus a general detection method for 5-LOX and can be used to screen libraries of compounds for those which inhibit 5 -LOX enzymes.
1) Blank Wells- add 100 µL of assay buffer to at least two wells.
2) Positive Control Wells- Lipoxygenase (15-LO standard) add 90 µL 15-LO and 10 µL of assay buffer […]
3) 100% Initial Activity Wells- add 90 µL 15-LO and 10 µL of solvent (DMSO) (the same solvent to dissolve the inhibitor) to two wells. The 100% initial activity wells should result in approximately 10 […]
4) Inhibitor Wells- add 90 µL of sample and I10 µL of inhibitor to two wells.
5) Initiate the reaction by adding 10 µL of substrate (either arachidonic acid or linoleic acid) to all the wells. Place the 96-well plate on a shaker for at least five minutes.
6) Add 100 µL of chromogen to each well to stop enzyme catalysis and develop the reaction. Cover with a plate cover and place the 96-well plate on a shaker for at least five minutes.
7) Remove the cover and read the absorbance at 490-500 nm using a plate reader.
Inhibitors were dissolved in DMSO. The inhibitors were added to the assay in a final volume of 10 µL before initiating with substrate. Three concentrations were prepared (25, 50 and 100 µM) to determine the concentration produced 50% enzyme inhibition.
2) The absorbance of blank wells was subtracted from absorbance of the 100% Initial activity and the […]

| SMILES | IC50 (COX-1) [µM] | % inhibition of paw oedema compared with reference drugs (in words) [1] | Volume of oedema (ml) 4h ([1]; 5 mg/kg) [mL] | inhibition in vivo at 5 mg/kg [1] [%] | % Relative potency (4h) celecoxib, Mean ± SD [1] [%] | % Relative potency (4h) celecoxib [1] | % Relative potency (4h) diclofenac, Mean ± SD [1] [%] | % Relative potency (4h) diclofenac [1] | Volume of oedema (ml) 0 ([1]; 5 mg/kg) [mL] | Gross appearance of gastric mucosa (ulcerogenic potential) (gastric mucosa) | IC50 (5-LOX) [µM] | melting point [°C] | % inhibition of paw oedema compared with reference drugs (in words) ([1]; 5 mg/kg) |
| --- | --- | --- | --- | --- | --- | --- | --- | --- | --- | --- | --- | --- | --- |
| Cc1ccc(C(C)C)c(O)c1C=NNC(=O)c1cc(-c2ccccc2)n(-c2ccc(S(N)(=O)=O)cc2)n1 [Compound 8a, 4-(3-(2–(2-Hydroxy-3-isopropyl-6-methylbenzylidene)hydrazine-1-carbonyl)-5-phenyl-1H-pyrazol-1-yl)benzenesulfonamide] | 11.2 ± 0.15 | slightly less % inhibition than that of Diclofenac sodium | 6.35 | 40.1 | 106.8 ± 12.02 | 114.10% and 92.90% and 113.30% | 74.10 ± 9.64 | 84.80% and 66.10% and 71.40% | 5.02 | variable degrees of hyperaemia; also recorded: Hyperemia without gross ulceration | 1.96 ± 0.036 |  |  |
| Cc1ccc(C(C)C)c(O)c1C=NNC(=O)c1cc(-c2ccc(Br)cc2)n(-c2ccc(Cl)cc2)n1 [Compound 8h, 5-(4-Bromophenyl)-1-(4-chlorophenyl)-N'-(2-hydroxy-3-isopropyl-6-methylbenzylidene)-1H-pyrazole-3-carbohydrazide] | 12.6 ± 1.36 | slightly less % inhibition than that of Diclofenac sodium |  | 53.6 | 140.9 ± 20.93 | 152.60% and 116.70% and 153.30% | 97.67 ± 15.13 | 113.30% and 83.10% and 96.60% | 5.02 | variable degrees of hyperaemia; also recorded: Hyperemia without gross ulceration | 1.97 ± 0.026 |  |  |
| COc1ccc(-c2cc(C(=O)NN=Cc3c(C)ccc(C(C)C)c3O)nn2-c2ccc(S(N)(=O)=O)cc2)cc1 [Compound 8c, 4-(3-(2-(2-Hydroxy-3-isopropyl-6-methylbenzylidene)hydrazine-1-carbonyl)-5-(4-methoxyphenyl)-1H-pyrazol-1-yl)benzenesulfonamide] | 12.87 ± 0.097 |  | 5.80 | 60.4 | 170.0 ± 9.73 | 171.80% and 159.50% and 178.70% | 117.9 ± 8.39 | 127.60% and 113.60% and 112.60% |  |  | 1.91 ± 0.053 | 245 to 247 |  |
| Cc1ccc(C(C)C)c(O)c1C=NNC(=O)c1cc(-c2ccc(Br)cc2)n(-c2ccc(S(N)(=O)=O)cc2)n1 [Compound 8b, 4-(5-(4-Bromophenyl)-3-(2-(2-hydroxy-3-isopropyl-6-methylbenzylidene)hydrazine-1-carbonyl)-1H-pyrazol-1-yl)benzene sulphonamide] | 13.61 ± 0.096 |  |  | 40.1 |  | 114.10% and 86.90% and 93.30% | 68.50 ± 14.20 | 84.80% and 61.90% and 58.80% | 5.02 | No gross ulceration | 1.58 ± 0.026 |  | nearly equal activity to celecoxib; also recorded: slightly less % inhibition than that of Diclofenac sodium |
| Cc1ccc(C(C)C)c(O)c1C=NNC(=O)c1cc(-c2ccc(Br)cc2)n[nH]1 [Compound 4b, 3-(4-Bromophenyl)-N'-(2-hydroxy-3-isopropyl-6-methylbenzylidene)-1H-pyrazole-5-carbohydrazide] | 11.8 ± 0.15 |  |  | 55.9 | 148.9 ± 11.16 | 159.0% and 136.90% and 150.70% | 103.5 ± 12.68 | 118.10% and 97.50% and 95.0% | 5.15 | No gross ulceration | 1.84 ± 0.06 |  |  |
